Experimental data reported in patent US20240002388A1, “PYRIMIDINONE COMPOUNDS AND USES THEREOF” (HUTCHISON MEDIPHARMA LIMITED, priority 2020, published 2024).

Molecular target: RIPK1 recombination protein (Homo sapiens (Human), UniProt Q13546)
Assay: RIPK1 kinase activity assay (ADP-Glo)
Format: biochemical
Details: for IC50: RIPK1 kinase activity, ADP-Glo, 10 μM ATP
Procedure: RIPK1 recombination protein: synthesized by Shanghai Medicilon Inc. under the commission by Hutchison MediPharma Limited (50 g of cell pellet was resuspended in 250 mL of lysis buffer (50 mM Tris, pH 7.5, 250 mM NaCl, 1 mM DTT, protease inhibitor 1:50), the cells were ultrasonically lysed using a sonicator (the power set to 4) on ice for 3×30 minutes; then centrifugation was carried out at 4° C., at 15,000 g for 30 minutes to clarify the suspension, the soluble pellet was resuspended into 10 mL of glutathione agarose, and incubated at 4° C. for 2 hours; then the beads were loaded into the column and washed with lysis buffer (no protease inhibitors) to baseline, and eluted with 20 mM of reduced glutathione (50 mM Tris, pH 8). The fractions identified by SDS-PAGE as containing the protein of interest were collected (10 mL of total volume), concentrated to about 5 mL and loaded into 300 mL superdex75 column (GE Healthcare) equilibrated with buffer (50 mM Tris, pH 7.5, 150 mM NaCl, 1 mM DTT, 10% glycerol, pH 7.5). RIP1 protein was eluted as a dimer from the superdex75 column. The protein concentration was determined by the Bradford assay using BSA as the standard. The yield was 12.5 mg at 0.63 mg/mL. The protein was aliquoted and frozen at −80° C. for later use.
ADP-Glo Kinase kit can be used to measure ADP level in kinase activity assay so as to distinguish the inhibitory effects of different compounds on RIPK1 kinase activity. The ADP-Glo assay was usually divided into three steps. Firstly, the kinase converted ATP to ADP and phosphorylated the substrate at the same time; secondly, ATP digestion reagent was added to degrade all ATP in the reaction system; finally, a detection reagent was added to reduce ADP to ATP, and energy from ATP was transferred to […] which thus emitting a chemical luminescence that can be detected. Assay procedure can refer to manufacture's technical manual.
(2) Reagent Preparation: • 1.33× kinase buffer: 5× kinase buffer stock (250 mM of NaCl, 150 mM of MgCl2, 2.5 mg/ml BSA (bovine serum albumin), 0.1% CHAPS (3-[(3-cholamidopropyl)-dimethyl-ammonio]-1-propane sulfonate), and 5 mM of dithiothreitol) was diluted with water to 1.33× kinase buffer; • RIPK1 enzyme solution: the kinase was dissolved in 1.33× kinase buffer to make 40 nM as the final working concentration; • ATP solution: 10 mM ATP stock solution in water was dissolved in 1.33× kinase buffer to make 10 μM as the final working concentration; • 4× compound preparation: the compound was diluted in a 3-fold gradient, and finally 4% DMSO aqueous solution containing different concentrations of the compound was obtained. The final concentrations of the test compound were 10, 3.33, 1.11, 0.37, 0.12, 0.04, 0.014, and 0.005 μM.
The assay set up two control groups, one was 100% inhibition group (no enzyme treatment), another was 0% inhibition group (no inhibitor treatment), each control group contained 8 replicate wells. 2.5 μl of serially diluted compound was added to each well of a 384-well plate, with double replicate wells, and 4% DMSO solution was added to control wells. Then 5 μl of RIPK1 enzyme solution was added to each well except 100% inhibition control, 5 ul of buffer was added to 100% inhibition control, after that, 2.5 μl of ATP solution was added to all wells, the plate was vibrated at 1000 rpm for 30 seconds to perform transient centrifuge; finally the 384-well assay plate was put in the shaking incubator, and incubated at room temperature for 3 hours. After the enzymatic reaction was completed, 5 μl of ATP depletion reagent was added to each well, the mixture was centrifuged transiently, then the 384-well assay plate was put in the shaking incubator, and incubated at room temperature for 1 hour. 5 μl of ADP detection reagent was added to each well, and the mixture was centrifuged transiently, and incubated at room temperature for 0.5 hour. […]

Sequence of RIPK1 recombination protein (Q13546 other isoform, or with tags, fused parts or gaps): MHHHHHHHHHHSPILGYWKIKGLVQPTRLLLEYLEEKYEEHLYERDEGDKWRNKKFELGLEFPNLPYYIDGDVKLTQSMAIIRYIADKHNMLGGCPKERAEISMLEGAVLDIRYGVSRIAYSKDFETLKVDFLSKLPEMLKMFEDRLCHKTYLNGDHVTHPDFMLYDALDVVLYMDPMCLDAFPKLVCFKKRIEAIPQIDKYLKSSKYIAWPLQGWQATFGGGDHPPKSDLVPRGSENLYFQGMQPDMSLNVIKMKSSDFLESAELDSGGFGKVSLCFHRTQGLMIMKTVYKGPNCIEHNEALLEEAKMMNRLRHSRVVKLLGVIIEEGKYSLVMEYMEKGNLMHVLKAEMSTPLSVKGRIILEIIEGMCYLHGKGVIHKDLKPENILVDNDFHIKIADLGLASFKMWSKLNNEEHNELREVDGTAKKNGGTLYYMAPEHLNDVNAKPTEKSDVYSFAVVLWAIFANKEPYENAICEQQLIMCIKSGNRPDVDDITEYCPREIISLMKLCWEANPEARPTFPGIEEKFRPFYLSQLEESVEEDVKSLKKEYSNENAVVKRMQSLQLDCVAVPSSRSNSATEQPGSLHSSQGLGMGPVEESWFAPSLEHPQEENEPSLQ

Structure (SMILES)	IC50 [nM]	inhibition at 3 µM (3 μM compound, read-out: Inhibition rate at the compound concentration of 3 μM) [%]
Cc1ncc(-c2ccc(C3(NC(=O)c4ncc5cnn(C(C)C)c5n4)CC3)cc2)c(=O)n1C [Compound 31]	432	–
C[C@@H](c1ccccc1)n1cnc(C(=O)NC2(c3ccc(-c4cncn(C)c4=O)cc3)CC2)n1 [Compound 56, (S)—N-(1-(4-(1-methyl-6-oxo-1,6-dihydropyrimidin-5-yl)phenyl)cyclopropyl)-1-(1-phenylethyl)-1H-1,2,4-triazole-3-carboxamide]	189	–
C[C@@H](c1ccccc1)c1nnc(C(=O)NC2(c3ccc(-c4cncn(C)c4=O)cc3)CC2)[nH]1 [Compound 58, (S)—N-(1-(4-(1-methyl-6-oxo-1,6-dihydropyrimidin-5-yl)phenyl)cyclopropyl)-5-(1-phenylethyl)-4H-1,2,4-triazole-3-carboxamide]	139	–

Second part, the compound after the results:

IC50 [nM]	inhibition at 3 µM (3 μM compound, read-out: Inhibition rate at the compound concentration of 3 μM) [%]	Structure (SMILES)
–	82.5	CC(C)n1ncc2cnc(C(=O)NC3(c4ccc(-c5cncn(C)c5=O)cc4Cl)CC3)nc21 [Compound 32]
531	–	C[C@H](c1ccccc1)c1nnc(C(=O)NC2(c3ccc(-c4cncn(C)c4=O)cc3)CC2)[nH]1 [Compound 57, (R)—N-(1-(4-(1-methyl-6-oxo-1,6-dihydropyrimidin-5-yl)phenyl)cyclopropyl)-5-(1-phenylethyl)-4H-1,2,4-triazole-3-carboxamide]
